Experiment: Agilent ZORBAX 300 SB-C18, 150 × 1 mm, 3.5 µm; A: water + 0.01% heptafluorobutyric acid; B: acetonitrile + 0.01% heptafluorobutyric acid; gradient (min/%B) 0/0 100/90
Conditions: stereoisomer not certain

| Compound | LC retention time |
| --- | --- |
| O=C(O)c1cncc(C(=O)O)c1 | 3.03 min |
| NCCCP(=O)(O)O | 1.3 min |
| CCCc1ccc(N)cc1 | 9.04 min |
| COc1ccc2cc3[n+](cc2c1OC)CCc1cc2c(cc1-3)OCO2 | 10.6 min |
| CCCCCCCCCCCCCCCCCCNC | 19 min |
| CCCCCCC(N)=O | 9.68 min |
| O=C(O)c1ccc(=O)[nH]c1 | 4.42 min |
| C=CCN(C)C | 5.73 min |
| CCN(CC)CC(=O)Nc1c(C)cccc1C | 9.19 min |
| CN1CC=C(C=Cc2ccco2)CC1 | 8.8 min |
| O=C1CCCc2c1[nH]c1ccc(C3CCCCC3)cc21 | 18.7 min |
| CN(C)CCNC1=CC(=O)CC(C)(C)C1 | 7.29 min |
| CNCc1cccn1C | 7.09 min |
| O=c1[nH][nH]c(=O)n1-c1ccc2c(c1)OCO2 | 6.9 min |
| Cc1ccc2nc(-c3nn[nH]n3)ccc2c1 | 10.5 min |
| CNC1C(OC2OC(CO)C(N)C(O)C2O)OC2CC(N)C(OC3C(N)CC(N)C(O)C3O)OC2C1O (centres undefined) | 8.39 min |
| CCOC(=O)C1(c2ccccc2)CCN(CCc2ccc(N)cc2)CC1 | 10.1 min |
| CCNCCNCC | 6.88 min |
| Cc1ccc(C(C)C)c(OCCN)c1 | 10.2 min |
| c1cnc(NC2=NCCN2)cn1 | 6.92 min |
| CCN(CC)c1ccc(N=Cc2ccc(N(CC)CC)cc2O)cc1 | 11.5 min |
| CNCCc1ccncc1 | 6.72 min |

| Compound | LC retention time |
| --- | --- |
| CNCC1COCCO1 (centres undefined) | 5.78 min |
| NC(=O)Cc1ccc(O)cc1 | 5.97 min |
| CCCCCCCC(N)=O | 11 min |
| CCOC1CCC2CC3C4CCC(O)C5OC1C2C45CCN3C (centres undefined) | 8.78 min |
| CC(=O)Nc1cc(NC(C)=O)nc(NC(C)=O)n1 | 7.21 min |
| NC1CCCC1 | 6.51 min |
| Cc1ccc(CN)cc1 | 7.92 min |
| CC(C)C1CN(Cc2ccco2)CCN1 (centres undefined) | 7.94 min |
| CCCC(=O)C1CCNCC1 | 7.57 min |
| CC(C)CCCC(C)N (centres undefined) | 9.28 min |
| NCc1ccc2[nH]c(=O)[nH]c2c1 | 6.29 min |
| Cn1ccnc1 | 3.76 min |
| CCCCN1CNC(=S)NC1 | 7.45 min |
| CCC(C)C(NC(=O)C1CCCN1)C(=O)O (centres undefined) | 7.86 min |
| O=C1NCCO1 | 2.05 min |
| Nc1ccccn1 | 6.12 min |
| C=C(C)CC1C=CCC(CC(=C)C)N1 (centres undefined) | 9.63 min |
| Nc1ccc2[nH]ccc2c1 | 7.01 min |
| c1ccc(CCNc2ccncn2)nc1 | 7.03 min |
| CC1(C)CC(NC(=O)C(=O)NC2CC(C)(C)NC(C)(C)C2)CC(C)(C)N1 | 7.48 min |
| CCOc1ccc(Cc2c(O)n(-c3ccc(CC)cc3)c(=O)[nH]c2=O)cc1 | 14.4 min |
| Cc1cc(N)c2c(c1)CCC(=O)N2 | 8.69 min |

| Compound | LC retention time |
| --- | --- |
| c1ccc2nccnc2c1 | 8.94 min |
| Cc1ccncc1C | 6.82 min |
| N=C(N)c1ccc(N)cc1 | 6.62 min |
| Cc1[nH]c(C=O)c(C)c1C | 10.3 min |
| CCCC(N)=O | 4.71 min |
| CC(C)=CCN1CC2(C)c3cc(O)ccc3CC1C2C (centres undefined) | 10.3 min |
| COC(=O)Cn1c(=O)n(C)c2c(=O)n(C)c(=O)n(C)c21 | 8.93 min |
| Nc1cccc(N)c1 | 5.85 min |
| COc1cccc2c1NCCC2 | 8.45 min |
| O=Cc1ccc2cccnc2c1 | 8.85 min |
| CC(C)c1ncc[nH]1 | 6.64 min |
| Nc1ccc(C(O)(c2ccc(N)cc2)c2ccc(N)cc2)cc1 | 9.07 min |
| COC(=O)CC1CC(C)(C)NC(C)(C)C1 | 8 min |
| CC(=O)Oc1ccccc1C(=O)NC(C)(C)C | 11.2 min |
| Cc1ccc(NC2=NCC(C)S2)cc1C (centres undefined) | 9.88 min |
| CCCCCCC=CC(C)=O | 16.2 min |
| CC(C)NCCCNC(C)C | 7.27 min |
| c1cnc2[nH]ccc2c1 | 7.27 min |
| OCC(CO)(CO)c1ccccn1 | 4.36 min |
| CCOC(=O)CN | 6.34 min |

Second part, the compound after the results:

| LC retention time | Compound |
| --- | --- |
| 17.8 min | O=C(C1c2ccccc2Oc2ccccc21)N1CCCc2ccccc21 |
| 14.8 min | O=C(CNc1ccc2ccccc2c1)NN=Cc1ccccc1 |
| 8.36 min | O=C(O)C1CCCN(CCc2ccccc2)C1 (centres undefined) |
| 7.34 min | CNC(=O)CC1Nc2ccccc2NC1=O (centres undefined) |
| 8.71 min | O=C(NCCNC(=O)c1ccccn1)c1ccccn1 |
| 14.7 min | COc1cccc(OC)c1C(=O)C=Cc1ccccc1 |
| 7.12 min | CN1C(=O)CC(N2CCN(C(=O)CN3CCCC3)CC2)C1=O (centres undefined) |
| 16.2 min | CC(C=Cc1ccccc1)=NNC(=O)C(C)Nc1ccc2ccccc2c1 (centres undefined) |
| 11.8 min | c1ccn(-c2ccc3cn[nH]c3c2)c1 |
| 15 min | Cc1ccc(-c2nc(-c3ccc(-c4ccccc4)cc3)[nH]c2-c2ccccc2)cc1C |
| 10.1 min | CC1(C)Cc2ccccc2C(C2=C(O)CCCC2=O)=N1 |
| 16.8 min | CCCCCCCN1C(=O)c2ccccc2C1(O)Cc1ccccc1 (centres undefined) |
| 2.18 min | O=C(O)c1cc(=O)n(-c2ccc(S(=O)(=O)O)cc2)[nH]1 |
| 13.3 min | CC(C)CNC(=O)c1cccc2c1-c1ccccc1C2=O |
| 9.51 min | CN(C)C(=O)c1ccc(N=CNc2ccc(C(=O)N(C)C)cc2)cc1 |
| 7.89 min | CC(=O)Nc1c2ccccc2nc2ccccc12 |
| 8.19 min | c1cncc(-c2nc3ccccc3[nH]2)c1 |
| 14.9 min | Cc1cccc(C=NNC(=O)c2cc3ccccc3cc2O)c1 |
| 9.25 min | CC(=O)c1c[nH]c2ccccc12 |
| 13.2 min | CC1=C(C(=O)c2ccccc2)CC(C(=O)c2ccccc2)=C(C)N1 |
| 9.6 min | c1ccc(CNCCNc2ccccc2)cc1 |
| 9.57 min | Nc1ncnc(N2CCCc3ccccc32)n1 |

| LC retention time | Compound |
| --- | --- |
| 13.2 min | S=C(NCCc1c[nH]c2ccccc12)Nc1ccccc1 |
| 11.6 min | CCOC(=O)c1ccc(NC(=O)N2CCCC2)cc1 |
| 8.94 min | CC(CCc1ccc(O)cc1)NCCc1ccc(O)c(O)c1 (centres undefined) |
| 11.9 min | COC(=O)c1ccc(NC(=O)Cn2nc(C)c3ccccc3c2=O)cc1 |
| 13.2 min | S=C1NC2(CCCCC2)NN1c1ccccc1 |
| 11.2 min | CC(C)(C)c1ccc(C(=O)NN=Cc2cccnc2)cc1 |
| 13.1 min | CC(C)NC(=O)c1ccc2ccccc2n1 |
| 8.5 min | Cc1nncn1-c1ccccc1 |
| 12.3 min | Cc1cccc(NC(=S)NNC(=O)c2cccc(C)c2)c1 |
| 9.82 min | Cc1ccc2[nH]c(-c3cc[n+](C)cc3)cc2c1 |
| 8.28 min | Cc1c(N)cc(N)cc1NC(=O)c1ccccc1 |
| 9.75 min | O=C(NCCN1CCN(Cc2ccccc2)CC1)C(=O)Nc1ccccc1 |
| 9.6 min | CN1C(=O)NC(c2ccc(O)cc2)C2=C1CN(Cc1ccccc1)C2=O (centres undefined) |
| 16.2 min | CCOC(=O)c1ccc2c(c1)C(=O)N(c1cccc3ccccc13)C2=O |
| 8.38 min | Nc1c2ccccc2nc2ccccc12 |
| 8.47 min | COCCNC(=O)Cn1c(=O)n(C)c2ccccc21 |
| 10.5 min | CCC(=O)Nc1ccc(Oc2ccc(NC(=O)CC)c(NC(=O)CC)c2)cc1 |
| 13.5 min | Cc1cc(C(=O)N2CCCCC2)c2c(=O)n(CC(=O)Nc3ccccc3)c(=O)n(-c3ccccc3)c2n1 |
| 11.7 min | CNCCC=C1c2ccccc2CCc2ccccc21 |
| 8.56 min | Nc1c(S(=O)(=O)O)ccc2c1C(=O)c1ccccc1C2=O |
| 18.1 min | c1ccc(C2=Nc3ccccc3Oc3ccccc32)cc1 |
| 14.5 min | Cc1ccccc1C=NNC(=O)C(O)(c1ccccc1)c1ccccc1 |

| LC retention time | Compound |
| --- | --- |
| 12.5 min | CCOc1ccc(N2C(=O)CC(N(Cc3ccc4c(c3)OCO4)C(C)=O)C2=O)cc1 (centres undefined) |
| 15.3 min | O=C(NCCCc1ccccc1)c1ccccc1O |
| 14.8 min | OCCCc1cn(-c2ccccc2)c2ccccc12 |
| 13.1 min | COc1ccc2c(c1)C(C)N1C(=O)c3cc(OC)c(OC)cc3C1O2 (centres undefined) |
| 9.8 min | Cc1ccc(NC(=O)C(=O)NCCN2CCN(C(=O)c3ccccc3)CC2)cc1 |
| 11.7 min | Cc1ccc(C(=O)NCc2ccco2)cc1 |
| 11.2 min | CC(=O)N(C)C1=C(N2CCCC2)C(=O)c2ccccc2C1=O |
| 11.1 min | CC(=O)Oc1cccc(C(=O)NN2C(=O)c3ccccc3C2=O)c1 |
| 16.8 min | Cc1cccc(NC(=O)C(Cc2c[nH]c3ccccc23)NC(=O)C(c2ccccc2)c2ccccc2)c1 (centres undefined) |
| 9.59 min | CCCc1c(O)c2ccccc2[nH]c1=O |
| 16.3 min | Cc1ccc(-c2cnc3ccccc3n2)cc1 |
| 12.4 min | CCOC(=O)CNc1ccccc1 |
| 9.46 min | CCC(=O)Nc1ccc(N2CCN(C(=O)C(C)C)CC2)cc1 |
| 15.9 min | COc1ccc(CCN2C(=O)C(C)C(Cc3ccc(C)cc3)C2=O)cc1OC (centres undefined) |
| 14.8 min | CC(=O)Oc1ccccc1C=Cc1nc2ccccc2c(=O)o1 |
| 10.1 min | c1ccc(CN(CC2=NCCN2)c2ccccc2)cc1 |
| 10.8 min | Cc1cn(-c2ccccc2)[nH]c1=O |
| 10.1 min | O=C1NCCc2c1[nH]c1ccccc21 |
| 8.05 min | Nc1ccccc1NC(=O)Nc1ccccc1N |
| 6.91 min | O=C(C[n+]1ccccc1)C1CC1 |
| 14.5 min | COc1ccc(N2CC(C(=O)N3CCC(Cc4ccccc4)CC3)CC2=O)cc1 (centres undefined) |

Reference: the RepoRT retention time repository
